Reference: ChEMBL document CHEMBL1201862, “PubChem BioAssay data set” (2004)
Calls of active or inactive are those of the source.

Columns and labels:
[1] = inhibitors of SNCA 5'UTR-driven reporter translation, confirmation, H4 neuroglioma cells, luminescence (AID 1988); format: functional, cell-based
[2] = inhibitors of firefly luciferase expression or activity, dose response, H4 neuroglioma cells, luminescence (AID 1990); format: functional, cell-based
[3] = cells; format: functional, cell-based
[4] = cells; format: functional, cell-based; remark: listed apart in the source
[5] = Luminescence Cell-Based Dose Response HTS to Identify Inhibitors of 5'UTR Stem-Loop Driven Prion Protein mRNA Translation in H4 Neuroglioblastoma Cells. [Related pubchem assays: 1827 (Project Summary), 1813 (Primary HTS)]; format: functional
[6] = biological target: Cytochrome P450 2D6 (Homo sapiens, UniProt P10635);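 further: CYP2D6 member of a cytochrome P450 panel assay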
[7] = biological target: T1, Heat shock factor protein 1 (Mus musculus, UniProt P38532); test: HSF1 potentiators in luciferase reporter cells, confirmation, cell-based, NIH3T3, luminescence, dose retest (AID 435004); format: functional;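 further: stress induced by proteasome inhibitor MG132 added 30 min after compound; luciferase reporter driven by HSF1 response element in NIH3T3 cells; actives raise luminescence as potentiators of the MG132 stress response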
T1 sequence (P38532 whole entry): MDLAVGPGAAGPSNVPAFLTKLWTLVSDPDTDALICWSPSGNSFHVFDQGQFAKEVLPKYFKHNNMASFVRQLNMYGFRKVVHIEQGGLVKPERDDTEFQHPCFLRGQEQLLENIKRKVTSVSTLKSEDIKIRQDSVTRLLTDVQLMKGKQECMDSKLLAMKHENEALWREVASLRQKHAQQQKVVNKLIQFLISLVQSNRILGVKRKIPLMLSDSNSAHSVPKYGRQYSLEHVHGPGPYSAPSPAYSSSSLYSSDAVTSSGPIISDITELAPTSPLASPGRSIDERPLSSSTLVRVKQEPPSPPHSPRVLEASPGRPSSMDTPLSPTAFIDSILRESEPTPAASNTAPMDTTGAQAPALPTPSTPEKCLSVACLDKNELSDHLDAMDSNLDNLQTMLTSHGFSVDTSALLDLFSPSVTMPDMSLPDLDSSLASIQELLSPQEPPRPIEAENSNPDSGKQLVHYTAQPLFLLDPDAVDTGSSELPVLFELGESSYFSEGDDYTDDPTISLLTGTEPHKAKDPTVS

[8] = biological target: T2, Zinc finger protein mex-5 (Caenorhabditis elegans, UniProt Q9XUB2); test: MEX-5/TCR-2 RNA interaction inhibitors, dose response, biochemical, C. elegans, fluorescence polarization (AID 1960)
T2 sequence (Q9XUB2 whole entry): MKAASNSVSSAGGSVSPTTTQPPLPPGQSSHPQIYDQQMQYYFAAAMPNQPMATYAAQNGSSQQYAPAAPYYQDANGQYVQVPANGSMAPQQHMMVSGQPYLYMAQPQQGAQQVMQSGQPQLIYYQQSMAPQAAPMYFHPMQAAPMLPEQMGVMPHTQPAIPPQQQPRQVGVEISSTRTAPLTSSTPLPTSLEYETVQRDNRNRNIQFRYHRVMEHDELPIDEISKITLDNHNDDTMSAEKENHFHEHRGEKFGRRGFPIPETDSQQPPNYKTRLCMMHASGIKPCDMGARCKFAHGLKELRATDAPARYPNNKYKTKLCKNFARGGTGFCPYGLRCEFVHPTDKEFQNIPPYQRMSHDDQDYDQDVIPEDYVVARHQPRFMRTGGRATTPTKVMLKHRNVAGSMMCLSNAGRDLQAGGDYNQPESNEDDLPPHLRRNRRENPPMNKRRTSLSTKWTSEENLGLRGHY

[9] = biological target: T3, RNA-binding protein pos-1 (Caenorhabditis elegans, UniProt G5EF15); test: inhibitors of POS-1/mex-3 RNA binding, dose response, biochemical, fluorescence polarization (AID 1964);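 further: purified POS-1 fused to maltose binding protein made in E. coli; potency of compounds blocking POS-1 binding to fluorescent RNA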
T3 sequence (G5EF15 whole entry): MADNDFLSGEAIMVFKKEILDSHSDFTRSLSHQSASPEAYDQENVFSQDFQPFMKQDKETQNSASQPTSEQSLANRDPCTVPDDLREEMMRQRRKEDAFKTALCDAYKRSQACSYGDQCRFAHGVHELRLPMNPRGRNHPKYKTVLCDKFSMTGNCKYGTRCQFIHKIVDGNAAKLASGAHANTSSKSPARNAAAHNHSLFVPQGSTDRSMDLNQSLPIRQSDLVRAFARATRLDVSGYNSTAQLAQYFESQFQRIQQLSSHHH

[10] = biological target: T4, Corticotropin-releasing factor receptor 2/Corticotropin-releasing factor-binding protein (Homo sapiens, UniProt P24387+Q13324); test: activators of CRF receptor 2 with binding protein – uHTS hits, confirmation (AID 602473); format: functional; conditions: read-out: EC50_Mean
T4 sequence (Q13324 whole entry): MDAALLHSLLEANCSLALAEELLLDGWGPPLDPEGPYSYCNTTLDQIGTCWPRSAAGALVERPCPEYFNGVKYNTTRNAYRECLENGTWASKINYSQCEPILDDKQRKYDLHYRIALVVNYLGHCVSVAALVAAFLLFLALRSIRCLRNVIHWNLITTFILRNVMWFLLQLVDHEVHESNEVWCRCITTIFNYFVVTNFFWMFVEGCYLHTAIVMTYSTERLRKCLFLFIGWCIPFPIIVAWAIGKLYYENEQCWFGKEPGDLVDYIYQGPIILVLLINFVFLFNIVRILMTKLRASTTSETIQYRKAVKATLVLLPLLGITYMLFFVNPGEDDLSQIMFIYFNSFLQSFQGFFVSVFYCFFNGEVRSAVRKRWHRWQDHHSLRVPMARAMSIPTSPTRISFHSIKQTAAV
T4 sequence (P24387 whole entry): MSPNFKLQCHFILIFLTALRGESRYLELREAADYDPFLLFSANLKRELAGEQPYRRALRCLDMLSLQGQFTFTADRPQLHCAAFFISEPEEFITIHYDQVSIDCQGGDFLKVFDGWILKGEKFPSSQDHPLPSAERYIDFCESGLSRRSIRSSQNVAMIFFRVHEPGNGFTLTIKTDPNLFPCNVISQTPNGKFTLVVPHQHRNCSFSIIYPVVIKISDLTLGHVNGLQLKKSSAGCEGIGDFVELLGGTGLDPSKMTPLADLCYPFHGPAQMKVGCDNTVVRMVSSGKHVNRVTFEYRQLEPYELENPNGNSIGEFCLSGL

[11] = Luminescence Cell-Based Dose Retest to Confirm Inhibitors of Cancer Stem Cells. [Related pubchem assays (depositor defined):AID2717, AID2721]; format: functional; conditions: Homo sapiens
[12] = cells; format: functional
[13] = biological target: Cytochrome P450 2C19 (Homo sapiens, UniProt P33261); test: Cytochrome panel assay with activity outcomes. Panel member name: p450-cyp2c19 Compounds with AC50 equal or less than 10 uM are considered active; format: functional
[14] = tested on: Streptococcus; test: Group A Streptococcus viability loss, dose response, counter-screen for streptokinase expression inhibitor project, luminescence, BacTiterGlo (AID 1915); format: functional, organism-based;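 further: potency for reduction of bacterial viability or growth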
[15] = tested on: Streptococcus sp. 'group A'; test: growth inhibition of control SK(-) GAS strain, dose response, counter-screen for streptokinase expression inhibitor project, luminescence, kanamycin, BacTiterGlo, confirmation (AID 1900); format: functional, organism-based
[16] = tested on: P388/ADR; test: cells; format: functional; conditions: Mus musculus
[17] = tested on: SN12K1; test: cells; format: functional; conditions: Homo sapiens
[18] = cytotoxicity toward NIH3T3 fibroblasts, dose response, counter-screen, cell-based, ATP luminescence, mouse fibroblasts (AID 2010); format: functional;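 further: cells exposed to compound for about 90 hours before reading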
[19] = inhibitors of intracellular T. cruzi replication, confirmation, NIH3T3 host cells, beta-gal luminescence (AID 2044); format: functional, cell-based;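 further: intracellular parasites grown in NIH/3T3 mouse fibroblasts as host cells; luminescent beta-galactosidase reporter signal from transgenic T. cruzi replicating inside host cells; inhibitors lower the luminescence signal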
[20] = tested on: INS1; test: beta cell apoptosis inhibitors, cytokine rescue, dose response, luminescence, retest (AID 449756); format: functional, cell-based; conditions: Rattus norvegicus;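 further: cell death triggered by IL-1 beta plus TNF-alpha plus IFN-gamma mixture; protective hits raise ATP signal compared with cytokine alone wells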

Sequence of Cytochrome P450 2D6 (P10635 whole entry): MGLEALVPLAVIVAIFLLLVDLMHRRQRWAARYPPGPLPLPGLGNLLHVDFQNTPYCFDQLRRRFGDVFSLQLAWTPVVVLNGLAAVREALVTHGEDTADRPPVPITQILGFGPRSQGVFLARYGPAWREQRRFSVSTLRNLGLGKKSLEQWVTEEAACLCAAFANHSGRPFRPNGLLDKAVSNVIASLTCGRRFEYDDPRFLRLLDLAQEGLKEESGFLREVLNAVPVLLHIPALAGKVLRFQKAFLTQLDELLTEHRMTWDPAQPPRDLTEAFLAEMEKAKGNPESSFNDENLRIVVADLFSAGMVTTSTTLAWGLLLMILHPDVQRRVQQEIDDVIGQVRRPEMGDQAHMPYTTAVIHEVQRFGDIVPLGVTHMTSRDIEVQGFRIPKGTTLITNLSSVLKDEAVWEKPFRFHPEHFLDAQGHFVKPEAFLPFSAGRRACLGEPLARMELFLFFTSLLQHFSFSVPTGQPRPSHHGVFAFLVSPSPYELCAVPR
Sequence of Cytochrome P450 2C19 (P33261 whole entry): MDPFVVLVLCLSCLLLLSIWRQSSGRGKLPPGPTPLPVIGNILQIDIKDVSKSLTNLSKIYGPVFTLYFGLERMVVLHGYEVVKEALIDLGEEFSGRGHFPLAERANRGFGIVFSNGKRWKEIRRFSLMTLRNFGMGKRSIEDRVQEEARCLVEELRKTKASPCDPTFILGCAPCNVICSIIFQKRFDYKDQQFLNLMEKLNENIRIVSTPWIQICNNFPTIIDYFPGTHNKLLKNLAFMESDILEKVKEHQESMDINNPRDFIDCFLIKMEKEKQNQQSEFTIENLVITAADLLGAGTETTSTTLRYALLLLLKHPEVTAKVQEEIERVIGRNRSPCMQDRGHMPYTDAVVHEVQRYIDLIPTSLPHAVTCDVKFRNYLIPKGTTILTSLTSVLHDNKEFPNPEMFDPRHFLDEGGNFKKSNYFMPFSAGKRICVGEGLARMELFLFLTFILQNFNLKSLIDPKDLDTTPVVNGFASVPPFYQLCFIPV

## CCOc1ccccc1N1CCN(C(=S)NC(=O)C23CC4CC(CC(C4)C2)C3)CC1
[1]
  EC50: 17.3 µM (active)
[2]
  EC50: > 120 µM (not active)
[3]
  EC50: > 350 µM (not active)
[4]
  EC50: > 350 µM (not active)
[5]
  EC50: 24.5 µM (active)

## CC(=O)Nc1nc(C)c(-c2csc(Nc3ccccn3)n2)s1
[3]
  EC50: 5.87 µM (active)
[4]
  EC50: > 350 µM (not active)

## CS(=O)(=O)c1cccc(C(=O)N(CCc2ccccc2)Cc2cccs2)c1
[3]
  EC50: > 350 µM (not active)
[4]
  EC50: > 350 µM (not active)

## Cc1nc2nc3c(cn2n1)C(=O)CC(c1ccccc1)C3 (centres undefined)
[4]
  EC50: > 350 µM (not active)

## CCN1CCCCC(=N/O)/C(=N/O)CCCC1
[6]
  AC50: 1.58 µM (inconclusive)

## O[C@H](COc1ccccc1)CN1CCCCC1
[6]
  AC50: 5.01 µM (inconclusive)

## S=C1SCN(C2CCCCCCCCCCC2)CN1C1CCCCCCCCCCC1
[6]
  AC50: 3.16 µM (inconclusive)

## COCCn1c(N)c(N(Cc2ccccc2)C(=O)c2ccc(C#N)cc2)c(=O)[nH]c1=O
[7]
  EC50: > 260 µM (inactive)

## N#C/C(=C/c1cccn1-c1cccc(C(=O)O)c1)c1ccc(Cl)cc1
[8]
  EC50: > 300 µM (not active)
[9]
  EC50: > 300 µM (not active)

## COc1ccc(C2C(C#N)=C(N)Oc3cc(O)ccc32)cc1C (centres undefined)
[10]
  EC50: > 53 µM (inactive)

## Cc1ccc(CNC(=O)/C(C#N)=C\c2ccc(N(C)C)cc2)cc1
[8]
  EC50: > 300 µM (not active)
[9]
  EC50: 43.5 µM (active)

## CNC(=O)c1c(NC(=O)c2ccc(S(=O)(=O)N3CCCc4ccccc43)cc2)sc2c1CCN(C)C2
[8]
  EC50: > 300 µM (not active)
[10]
  EC50: 6.81 µM (active)
[9]
  EC50: > 300 µM (not active)
[11]
  AC50: 0.206 µM (active)

## c1ccc2[nH]c(NC3=NCCC3)nc2c1
[12]
  IC50: 12.2 µM (active)
[13]
  AC50: inconclusive

## C/C(=N\OC(=O)c1ccc(F)cc1)c1ccc(F)c(F)c1
[7]
  EC50: > 260 µM (inactive)

## Cc1ccc(C(=O)Nc2nccs2)cc1
[12]
  IC50: 41.4 µM (active)

## O=C(COC(=O)c1ccc(Cl)s1)c1ccc[nH]1
[12]
  IC50: 5.77 µM (active)

## O=C(CNS(=O)(=O)c1ccc([N+](=O)[O-])cc1)N/N=C\c1ccc(O)cc1
[10]
  EC50: 7.12 µM (active)

## COC(=O)CCCC(=O)N1CCCC(C(=O)c2ccc(-c3ccccc3)cc2)C1 (centres undefined)
[12]
  IC50: > 50 µM (active)

## COc1c2occc2c(OC)c2c(=O)cc(C)oc12 [KHELLIN]
[6]
  AC50: 10 µM (inconclusive)

## CCN1C(=O)/C(=C\c2cccs2)C(C(=O)OC)=C1C
[8]
  EC50: > 300 µM (not active)
[9]
  EC50: > 300 µM (not active)

## O=S1(=O)N=C(NCC(c2ccco2)N2CCCCC2)c2ccccc21 (centres undefined)
[7]
  EC50: > 260 µM (inactive)

## Cc1cc(=O)oc2cc(OCC(=O)N3CCN(c4ccc(F)cc4)CC3)ccc12
[3]
  EC50: > 350 µM (not active)
[4]
  EC50: > 350 µM (not active)

## C=CCN1C(c2cccc(C(F)(F)F)c2)=CS/C1=C(\C#N)c1nnc(N2CCOCC2)n1-c1ccccc1
[10]
  EC50: > 53 µM (inactive)

## Cc1ccc(/C=N/NC(=O)c2ccc(Br)o2)s1
[3]
  EC50: 37.1 µM (active)
[4]
  EC50: > 350 µM (not active)

## Cc1cc(/C=C2\C(=O)NC(=O)N(c3ccc(Br)cc3)C2=O)c(C)n1-c1cc(C(=O)O)cc(C(=O)O)c1
[8]
  EC50: > 300 µM (not active)
[9]
  EC50: > 300 µM (not active)

## COc1ccc(CC(=O)NN=C(S)NCC2CC2)cc1OC
[3]
  EC50: > 350 µM (not active)
[4]
  EC50: > 350 µM (not active)

## O=C1NC(=O)N(c2cccc(Cl)c2)C(=O)/C1=C\Nc1ccccn1
[8]
  EC50: > 300 µM (not active)
[9]
  EC50: > 300 µM (not active)

## CN1C(=O)/C(=C/c2ccccc2F)Sc2ccc(C(=O)N3CCCC3)cc21
[14]
  EC50: 2.66 µM (active)
[15]
  EC50: 1.06 µM (active)

## CC[C@@]1(O)C[C@H](OC2CC(N(C)C)C(OC3CC(O)C(OC4CCC(=O)C(C)O4)C(C)O3)C(C)O2)c2c(cc3c(c2O)C(=O)c2c(O)cccc2C3=O)[C@H]1C(=O)OC (some centres undefined)
[16]
  GI50: 0.0333 µM (active)
[17]
  GI50: 0.0236 µM (active)

## CC(NC(=O)c1cc2c(s1)CS(=O)(=O)C2)c1ccccc1 (centres undefined)
[3]
  EC50: > 350 µM (not active)
[4]
  EC50: > 350 µM (not active)

## CCc1cccc(C)c1NC(=S)N1CCCCC1c1cccnc1 (centres undefined)
[10]
  EC50: 6.05 µM (active)

## C/C(Cn1nnc([N+](=O)[O-])n1)=N\NC(=O)c1ccncc1
[18]
  EC50: > 30 µM (not active)
[12]
  IC50: 0.3 µM (active)
[19]
  EC50: 0.214 µM (active)

## Cc1ccc(/C=N/N(Cc2ccccc2)c2ccccc2)o1
[7]
  EC50: > 260 µM (inactive)

## CN(C)c1ccc(C=NN2C(=O)CSC2=S)c(Cl)c1
[10]
  EC50: > 53 µM (inactive)

## S=C(NCc1ccco1)N1CCN(c2ccccc2Cl)CC1
[7]
  EC50: > 260 µM (inactive)

## CCc1ccc(NC(=O)COc2ccc3c(c2)OCO3)cc1
[12]
  IC50: > 50 µM (active)

## Cc1ccc(C(c2nnnn2C2CCCC2)N2CCc3ccccc32)cc1 (centres undefined)
[7]
  EC50: > 260 µM (inactive)

## COc1ccccc1N(CC(=O)N/N=C/c1c(O)ccc2ccccc12)S(C)(=O)=O
[1]
  EC50: 8.56 µM (active)
[20]
  AC50: 2.15 µM (active)
[2]
  EC50: 13.5 µM (active)
[4]
  EC50: 9.19 µM (active)
[5]
  EC50: 22.8 µM (active)

## CCCN(Cc1nnc(-c2ccccc2Cl)o1)C(=O)c1cc([N+](=O)[O-])cc([N+](=O)[O-])c1
[12]
  IC50: 5.87 µM (active)

## COC(=O)CCCC1=CC2=CC(=O)C(C)(OC(=O)c3ccco3)C(=O)C2=CO1 (centres undefined)
[8]
  EC50: 22.3 µM (active)
[9]
  EC50: 274 µM (inconclusive)

## Cc1ccc(-c2ccc(O)nn2)cc1
[7]
  EC50: > 260 µM (inactive)
